Results as given in patent US20250099493A1, “PHOSPHONATES AS INHIBITORS OF ENPP1 AND CDNP” (STINGRAY THERAPEUTICS, INC., priority 2020, published 2025).
pIC50: −log10 of the molar value. Where two headings read alike, the source gives them in different places.

Assays:
[1] = molecular target: Recombinant Human ENPP-1 Protein (Homo sapiens (Human), UniProt P22413); assay: ENPP1 Inhibition Assay; type: biochemical
Experimental: Assay Buffer: 1 mM CaCl2), 0.2 mM ZnCl2, 50 mM Tris, pH 9.0. Substrate: 8 mM Thymidine 5′-monophosphate p-nitrophenol ester sodium salt (Sigma Cat #T4510). Enzyme: […] Recombinant Human ENPP-1 Protein (R&D Cat #6136-EN-010) in DMSO in 96-well clear assay plates.
An eight point serial dilution of drugs was prepared in 10× in assay buffer with the final assay concentrations starting at 10 μM, 3 μM, 1 μM, 0.3 μM and 0 μM. A dilution of DMSO was included as a control. The assay plate was set up as follows with each well in duplicate: 81 μL assay buffer+10 μL ENPP1 inhibitor or DMSO+5 μL Substrate+4 μL Enzyme. Both the enzyme and substrate was added to opposite sides of the well to ensure that there was no interaction until all wells had both components. The plate was then centrifuged gently for 10 seconds, followed by an incubation at 37° C. for 45 minutes. The reaction was quantified by measuring absorbance at 405 nm using an Envision plate reader.
IC50 values are determined using GraphPad Prism 5 software. The data were entered as an X-Y plot into the software as percent inhibition for each concentration of the drug. The concentration values of the drug were log transformed and the nonlinear regression was carried out using the “sigmoidal dose-response (variable slope)” option within the GraphPad software to model the data and calculate IC50 values. The IC50 values reported are the concentration of drug at which 50% inhibition was reached.

Recombinant CndP (CdnP) = Recombinant CndP (CdnP) (Mycobacterium tuberculosis (strain ATCC 25618 / H37Rv), UniProt P71615); assay: CndP Assay with BPNPP substrate; type: biochemical, M. tuberculosis; details: pH 8.0, 37° C. 45 minutes, read-out: Inhibition of CdnP IC50
Recombinant CdnP Protein = Recombinant CdnP Protein (Mycobacterium tuberculosis (strain ATCC 25618 / H37Rv), UniProt P71615); assay: CdnP HPLC Assay with C-DI-AMP Substrate; type: biochemical, M. tuberculosis; details: HPLC AMP peak area, read-out: Inhibition percentage of CdnP; for inhibition at 100 µM: 100 μM compound
[2] = substrate thymidine 5′-monophosphate p-nitrophenol ester, pH 9.0, 37° C. 45 minutes, read-out: Inhibition of ENPP1 IC50

Recombinant CdnP Protein, sequence (P71615 whole entry, looked up): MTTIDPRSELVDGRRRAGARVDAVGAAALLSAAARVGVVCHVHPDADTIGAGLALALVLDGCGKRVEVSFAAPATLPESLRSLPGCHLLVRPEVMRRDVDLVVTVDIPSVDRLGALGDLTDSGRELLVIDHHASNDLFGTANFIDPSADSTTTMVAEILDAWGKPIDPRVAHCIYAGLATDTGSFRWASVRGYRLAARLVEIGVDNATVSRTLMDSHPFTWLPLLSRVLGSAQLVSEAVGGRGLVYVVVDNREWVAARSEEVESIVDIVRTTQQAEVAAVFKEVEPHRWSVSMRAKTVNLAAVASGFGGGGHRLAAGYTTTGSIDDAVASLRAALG
Recombinant CndP (CdnP), sequence (P71615 whole entry, looked up): as above
Recombinant Human ENPP-1 Protein, sequence (P22413 99-925): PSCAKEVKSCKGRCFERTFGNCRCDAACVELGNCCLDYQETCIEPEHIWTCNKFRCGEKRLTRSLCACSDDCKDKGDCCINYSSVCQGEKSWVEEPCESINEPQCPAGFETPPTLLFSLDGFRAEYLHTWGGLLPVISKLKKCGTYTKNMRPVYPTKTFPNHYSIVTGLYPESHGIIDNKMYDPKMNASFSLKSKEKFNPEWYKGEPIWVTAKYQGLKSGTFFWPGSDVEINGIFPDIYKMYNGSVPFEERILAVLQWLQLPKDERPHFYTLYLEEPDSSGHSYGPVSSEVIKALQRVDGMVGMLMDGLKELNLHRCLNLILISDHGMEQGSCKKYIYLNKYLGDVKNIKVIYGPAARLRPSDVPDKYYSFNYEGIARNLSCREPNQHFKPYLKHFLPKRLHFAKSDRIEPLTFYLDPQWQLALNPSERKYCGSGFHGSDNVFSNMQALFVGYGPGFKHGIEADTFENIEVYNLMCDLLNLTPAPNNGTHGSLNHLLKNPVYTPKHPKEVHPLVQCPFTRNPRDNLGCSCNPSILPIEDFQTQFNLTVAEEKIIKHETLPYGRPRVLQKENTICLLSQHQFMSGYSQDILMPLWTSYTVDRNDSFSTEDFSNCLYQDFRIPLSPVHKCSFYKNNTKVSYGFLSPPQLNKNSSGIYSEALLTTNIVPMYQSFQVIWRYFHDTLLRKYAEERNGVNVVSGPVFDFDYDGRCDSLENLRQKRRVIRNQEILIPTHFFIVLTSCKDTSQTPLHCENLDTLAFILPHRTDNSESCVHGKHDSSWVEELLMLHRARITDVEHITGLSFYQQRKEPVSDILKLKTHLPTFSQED

SMILES | pIC50 [1, 2] | pIC50 (Recombinant CndP (CdnP)) | pIC50 [1] | inhibition at 100 µM (Recombinant CdnP Protein) | inhibition at 1 µM (Recombinant CdnP Protein; 1 μM compound) | inhibition at 10 µM (Recombinant CdnP Protein; 10 μM compound)
COc1cc2ncnc(N3CCCN(CP(=O)(O)O)CC3)c2cc1OC [Compound I-6, ((4-(6,7-dimethoxyquinazolin-4-yl)-1,4-diazepan-1-yl)methyl)phosphonic acid] | < 7.00 | < 6.00 | – | – | – | –
COc1cccc2c(N3CCCC(CP(=O)(O)O)CC3)ncnc12 (stereo not drawn) [Compound I-9, ((1-(8-methoxyquinazolin-4-yl)azepan-4-yl)methyl)phosphonic acid] | > 8.00 | 6.00 to 7.00 | – | – | – | –
COc1cc2ncnc(N3CCCC(CP(=O)(O)O)CC3)c2cc1OC (stereo not drawn) [Compound I-3, ((1-(6,7-dimethoxyquinazolin-4-yl)azepan-4-yl)methyl)phosphonic acid] | – | 6.00 to 7.00 | 7.00 to 8.00 | – | – | –
COc1cc2ncnc(N3CCCC(CCP(=O)(O)O)CC3)c2cc1OC (stereo not drawn) [Compound I-4, (2-(1-(6,7-dimethoxyquinazolin-4-yl)azepan-4-yl)ethyl)phosphonic acid] | > 8.00 | > 7.00 | – | – | – | –
COc1cc2ncnc(N3CCCC(CCCP(=O)(O)O)CC3)c2cc1OC (stereo not drawn) [Compound I-5, (3-(1-(6,7-dimethoxyquinazolin-4-yl)azepan-4-yl)propyl)phosphonic acid] | – | 6.00 to 7.00 | 7.00 to 8.00 | – | – | –
COc1cc2ncc(C#N)c(N3CCCC(CP(=O)(O)O)CC3)c2cc1OC (stereo not drawn) [Compound I-7, ((1-(3-cyano-6,7-dimethoxyquinolin-4-yl)azepan-4-yl)methyl)phosphonic acid] | > 8.00 | > 7.00 | – | – | – | –
COc1cc2ncnc(-c3ccc(CP(=O)(O)O)nc3)c2cc1OC [II-1, ((5-(6,7-dimethoxyquinazolin-4-yl)pyridin-2-yl)methyl)phosphonic acid] | – | – | – | > 50% | – | –
COc1cc2ncnc(N3CCCC(CP(=O)(OCOC(=O)C(C)C)OCOC(=O)C(C)C)CC3)c2cc1OC (stereo not drawn) [Compound I-10, ((((1-(6,7-dimethoxyquinazolin-4-yl)azepan-4-yl)methyl)phosphoryl)bis(oxy))bis(methylene) bis(2-methylpropanoate)] | < 7.00 | < 6.00 | – | – | – | –
COc1cccc2c(N3CCCC(CP(=O)(O)O)CC3)ccnc12 (stereo not drawn) [Compound I-8, ((1-(8-methoxyquinolin-4-yl)azepan-4-yl)methyl)phosphonic acid] | < 7.00 | 6.00 to 7.00 | – | – | – | –
COc1cc2ncnc(N3CCC[C@H](CP(=O)(O)O)CC3)c2cc1OC [Compound I-2, (S)-((1-(6,7-dimethoxyquinazolin-4-yl)azepan-4-yl)methyl)phosphonic acid] | < 7.00 | 6.00 to 7.00 | – | – | – | –
COc1cc2ncnc(N3CCC[C@@H](CP(=O)(O)O)CC3)c2cc1OC [Compound I-1, (R)-((1-(6,7-dimethoxyquinazolin-4-yl)azepan-4-yl)methyl)phosphonic acid] | – | 6.00 to 7.00 | 7.00 to 8.00 | > 50% | < 20% | > 50%
